{
  "source": "patent US12290521B2",
  "about": "“Methods and materials for identifying and treating BET inhibitor-resistant cancers” (Mayo Foundation for Medical Education and Research, priority 2018, dated 2025)",
  "key": {"C4-2 xenograft tumors": {"tested_on": "C4-2 xenograft tumors", "test": "Prostate cancer xenografts in NSG mice", "format": "in vivo", "settings": "SPOP-F133V C4-2 xenografts; JQ1 50 mg/kg i.p. 5 days a week, day 21", "procedure": "6-week-old NOD-SCID IL-2-receptor gamma null (NSG) mice were generated and randomly divided into different experimental groups as indicated. All mice were housed in standard conditions with a 12-hour light/dark cycle and access to food and water ad libitum. For BRD2/3/4 knockdown studies, C4-2 cells (5×10^6), infected with lentivirus expressing empty vector (EV) or HA-SPOP-F133V mutant in combination with control shRNA or BRD2/3/4-specific shRNA, were mixed with Matrigel (in 100 μL 1×PBS plus 100 μL Matrigel (BD Biosciences)) and injected s.c. into the right flank of mice. After xenografts reached the size of about 100 mm^3, vehicle (10% beta cyclodextrin) or JQ1 (Sigma-Aldrich) at 50 mg/kg body weight was administered by i.p. injection 5 days a week. For studies with tumors treated with JQ1 and AKT inhibitor GDC-0068, C4-2 cells (5×10^6) infected with lentivirus expressing empty vector (EV) or HA-SPOP-F133V mutant were mixed with Matrigel (in 100 μL 1×PBS plus 100 μL Matrigel (BD Biosciences)) and injected s.c. into the right flank of mice. […] Growth in tumor volume was measured in a blinded fashion using digital caliper, and tumor volumes were estimated using the formula (L×W2)/2, where L is length of tumor and W is width. The volumes of tumors were compared, and P values were determined by a two-tailed Student's t test. […]"}, "DUB3": {"tested_on": "DUB3", "settings": "Borbely et al., Oncotarget 2015; cited from earlier work"}, "BRD4": {"tested_on": "BRD4", "test": "Western blot of BRD4 protein, ubiquitination and half-life in DU145 cells", "format": "cell-based, human", "settings": "DU145 cells; JQ1, 24 hours", "procedure": "Co-Immunoprecipitation (Co-IP) Cells were harvested and lysed by IP buffer (50 mM Tris-HCl, pH 7.4, 150 mM NaCl, 1% Triton X-100, 1% sodium deoxycholate and 1% protease inhibitor cocktails) on ice for more than 15 minutes. Cell lysate was centrifuged for 15 minutes at 13,000 rpm at 4° C., and the supernatant was incubated with primary antibodies and protein A/G agarose beads (Thermo Fisher Scientific) with rotating at 4° C. overnight. The next day, the pellet was washed at least six times with 1×IP buffer on ice, and then subjected to western blotting analysis. Western Blotting\nCells were harvested and lysed by IP buffer (50 mM Tris-HCl, pH 7.4, 150 mM NaCl, 1% Triton X-100, 1% sodium deoxycholate and 1% protease inhibitor cocktails) on ice for more than 15 minutes. Cell lysate was centrifuged for 15 minutes at 13,000 rpm at 4° C., and the supernatant was quantified by BCA protein quantification assay. Equal amounts of protein sample were added into 4× sample buffer and boiled for 5 minutes. The sample was subjected to SDS-PAGE analysis and transferred to nitrocellulose membrane. The membrane was blocked by 5% milk for 1 hour at room temperature and incubated with primary antibody at 4° C. overnight. The next day, the membrane was washed three times with 1×TBST and incubated with horseradish peroxidase-conjugated secondary antibodies for 1 hour at room temperature. The protein bands were visualized by SuperSignal West Pico Stable Peroxide Solution (Thermo Fisher Scientific)."}, "DU145 cells": {"tested_on": "DU145 cells", "test": "Cell proliferation (MTS assay)", "format": "cell-based, human", "settings": "JQ1 2 μM", "procedure": "Cell proliferation was measured by using the MTS assay (Promega). Prostate cancer cells (2,000 per well) were seeded in 96-well plates with 100 μL of culture medium. Each well was added with 20 μL of CellTiter 96R AQueous One Solution Reagent (Promega) and absorbance was measured in a microplate reader at 490 nm.\nThe cells then were treated with vehicle (DMSO), a CBP/p300 inhibitor (CPI-637; iCBP; 20 μM), or a BET inhibitor (JQ1; 2 μM) alone or a combination of CPI-637 and JQ1. After 72 hours, cells were subjected to measurement of cell growth by an MTS assay. In each cell type (EV and F133V), the OD value in each group was normalized by the value in the control (vehicle) group."}},
  "data": [
    {"compound": "Cc1sc2c(c1C)C(c1ccc(Cl)cc1)=N[C@@H](CC(=O)OC(C)(C)C)c1nnc(C)n1-2", "note": "[JQ1]", "values": [
      {"measurement": "xenograft tumor growth", "setting": "C4-2 xenograft tumors", "result": "JQ1-resistance"},
      {"measurement": "DUB3 mRNA level", "setting": "DUB3", "result": "rapid upregulation"},
      {"measurement": "BRD4 polyubiquitination", "setting": "BRD4", "result": "markedly inhibited"},
      {"measurement": "sensitivity of cell growth to JQ1", "setting": "DU145 cells; DUB3-knockdown DU145 cells versus control knockdown cells", "result": "much more sensitive"},
      {"measurement": "resistance of cell growth by DUB3 overexpression", "setting": "DU145 cells; DUB3-overexpressing DU145 cells", "result": "conferred resistance"},
      {"measurement": "sensitivity of cell growth to JQ1", "setting": "DU145 cells; SPOP F133V-expressing DU145 cells", "result": "JQ1 resistance"},
      {"measurement": "sensitivity of cell growth to JQ1 after DUB3 knockdown", "setting": "DU145 cells; SPOP-F133V cells with DUB3 shRNA", "result": "sensitized"}
    ]}
  ]
}
